Assay results reported in PubChem BioAssay AID1996.
In brackets after ≈: the same amount, converted by molar mass.

Details: buffer; pH 7.4; 200.0 µM

SMILES | solubility kinetic
CC(C)OCCCNC1=C(Cl)C(=O)c2ccccc2C1=O | 35.5 µg/mL (≈ 115 µM)
O=C(Cc1ccc(F)cc1)N1CCN(c2ccc(F)cc2)CC1 | > 47.5 µg/mL
CC(C)Nc1nc(Cl)nc(NC2CCCCC2)n1 | 2.7 µg/mL (≈ 10 µM)
Cc1noc(C)c1C(=O)N1CCC(CO)(Cc2ccccc2)CC1 | 42 µg/mL (≈ 128 µM)
Cc1ccc(N(CC(=O)NCC2CCCO2)S(=O)(=O)c2ccc(Cl)cc2)cc1C (centres undefined) | 40.2 µg/mL (≈ 92 µM)
O=C(/C=C/c1ccc(F)cc1)NC(=S)Nc1ccccc1O | 1.8 µg/mL (≈ 5.69 µM)
Cc1nnc(SCC(=O)Nc2ccccc2F)n(N)c1=O | > 46.4 µg/mL
O=C(O)c1ccc(/C=N/Nc2ncc(Cl)cc2Cl)cc1 | > 46.5 µg/mL
O=C(Cc1cccc2ccccc12)NCC(=O)Nc1ccccc1F | 10.6 µg/mL (≈ 31.5 µM)
O=C(Nc1cccc2ncccc12)C(c1ccccc1)c1ccccc1 | < 0.4 µg/mL
COc1ccc2oc(=N)c(C(=O)NCc3ccccc3)cc2c1 | 3.1 µg/mL (≈ 10.1 µM)
COc1ccc(CCNC(=O)COC(=O)C2CC2C)cc1 (centres undefined) | > 43.7 µg/mL
CC(=O)N1CCN(c2ccnc3cc(Cl)ccc23)CC1 | 34.3 µg/mL (≈ 118 µM)
CC1CN(C(=O)c2cc3cc([N+](=O)[O-])ccc3s2)CC(C)O1 (centres undefined) | 18.5 µg/mL (≈ 57.7 µM)
Cc1cccc(C)c1NC(=O)CC(C)c1ccccc1 (centres undefined) | 12.8 µg/mL (≈ 47.9 µM)
CSc1ccccc1NC(=O)COC(=O)CCC(=O)c1ccc(F)cc1 | > 56.3 µg/mL
CSc1sccc1/C=N/O | 18.2 µg/mL (≈ 105 µM)
S=C(NCC1(c2ccccc2)CCCC1)Nc1ccccc1 | 0.8 µg/mL (≈ 2.58 µM)
Cc1ccc(-c2nc3ccc(Cl)cc3c(=O)n2O)cc1 | 42.2 µg/mL (≈ 147 µM)
N#CC1=C(N)Oc2cc(N)ccc2C1c1ccc(Cl)cc1 (centres undefined) | 3.4 µg/mL (≈ 11.4 µM)

SMILES | solubility kinetic
CC(C)(C)NC(=O)NC(=O)CN1CCCCCCC1 | 21.2 µg/mL (≈ 78.7 µM)
C1=CCN(Cc2ccccc2)C1 | 4.1 µg/mL (≈ 25.7 µM)
CNC(=S)Nc1ccc2[nH]c(=O)[nH]c2c1 | > 33.3 µg/mL
O=C1c2cccc3c2N(CCC3)C(=O)C1(F)c1ccccc1 (centres undefined) | > 44.3 µg/mL
COc1ccc(CC(=O)O/N=C(\N)Cc2ccc([N+](=O)[O-])cc2)cc1 | 5.6 µg/mL (≈ 16.3 µM)
O=C(CSc1ccccc1C(=O)N1CCN(c2ccc([N+](=O)[O-])cc2)CC1)N1CCCC1 | > 68.2 µg/mL
CCOc1ccccc1CNS(=O)(=O)c1cnc[nH]1 | > 42.2 µg/mL
CC1(C)CN=C(Nc2ccc(F)c(Cl)c2)S1 | 0.8 µg/mL (≈ 3.09 µM)
Cc1ccc(C)n1CCN1CCN(C(=O)CC#N)CC1 | > 41.2 µg/mL
CC1(C)Oc2ccc3ccc(=O)oc3c2C(/C=N/O)=C1Cl | 12.5 µg/mL (≈ 40.9 µM)
CC(=O)Nc1ccc(S(=O)(=O)Nc2cccc3cccnc23)cc1 | > 51.2 µg/mL
O=c1c(Cc2ccc(F)cc2)c(O)ccn1Cc1ccco1 | 33 µg/mL (≈ 110 µM)
O=C(O)CNc1nc(-c2ccccc2)nc2c1oc1ccccc12 | > 47.9 µg/mL
O=C(Nc1nonc1-c1ccc(Cl)cc1)c1ccccc1 | 0.7 µg/mL (≈ 2.34 µM)
COCc1cc(=O)oc2cc(NS(=O)(=O)c3ccc(C)cc3)ccc12 | 1.3 µg/mL (≈ 3.62 µM)
Cc1ccc(NC(=O)Cn2c([N+](=O)[O-])cnc2C)cc1Cl | 1.6 µg/mL (≈ 5.18 µM)
CCCNC(=O)c1ccc2c(c1)ncn2-c1cc(C)cc(C)c1 | 38.4 µg/mL (≈ 125 µM)
C=CCn1c(C(O)c2ccccc2)nc2ccccc21 (centres undefined) | 24.2 µg/mL (≈ 91.6 µM)
Cc1nc(C)c(C(=O)O)s1 | > 23.6 µg/mL
O=C(O)c1cccnc1SCc1cn2cc(Cl)ccc2n1 | > 48 µg/mL

SMILES | solubility kinetic
COC(=O)c1cc(-c2cccc(OC)c2)c2c(=O)[nH]c(=O)n(C)c2n1 | 3.4 µg/mL (≈ 9.96 µM)
Cl.O=C(OCCN1CCCCC1)c1cccc(Cl)c1 | > 45.6 µg/mL
CC1CC(=O)C2=C(C1)Nc1nc3ccccc3n1C2c1cccnc1 (centres undefined) | 3.3 µg/mL (≈ 9.99 µM)
CCOC(=O)c1c(C)oc2c1c(C=NCC1CCCO1)c(O)c1ccccc12 (centres undefined) | < 0.8 µg/mL
O=C(NC12CC3CC(CC(C3)C1)C2)c1ccco1 | 36.5 µg/mL (≈ 149 µM)
CC(=O)c1c(C)[nH]c(C(=O)Nc2cc(F)ccc2C)c1C | 4.5 µg/mL (≈ 15.6 µM)
Cc1ccccc1C(=O)N1CCC(C(=O)NC2CCCCCC2)CC1 | 48.6 µg/mL (≈ 142 µM)
O=S(=O)(NCC1CC1)c1cc(Cl)cc(Cl)c1 | 10.2 µg/mL (≈ 36.4 µM)
O=[N+]([O-])c1ccc(CSc2ccc(S(=O)(=O)N3CCCCC3)cn2)cc1 | 2.4 µg/mL (≈ 6.1 µM)
CCOC(=O)C1(Cc2ccc(Cl)cc2)CCN(C2CCC2)CC1 | 44 µg/mL (≈ 131 µM)
Cc1c(O)ccc(C(=O)CN2CCN(c3ccccc3F)CC2)c1O | 13.7 µg/mL (≈ 39.8 µM)
O=[N+]([O-])c1ccc(Cl)c(S(=O)(=O)/N=C(/Nc2cccnc2)c2ccccc2)c1 | > 62.5 µg/mL
O=C(Nc1ncccn1)C1CCCCC1 | > 30.8 µg/mL
CC(C)[C@H](NC(=O)c1ccccc1Cl)C(=O)Nc1ccc(S(=O)(=O)Nc2nccs2)cc1 | 14.6 µg/mL (≈ 29.6 µM)
CN1CCN(CC(=O)Nc2nc3c(s2)CCCC3)CC1 | > 44.2 µg/mL
Cc1ccc(C)n1CCN1CCN(S(=O)(=O)c2ccc(F)cc2F)CC1 | 26.1 µg/mL (≈ 68.1 µM)
COc1ccc(NC(=O)c2oc3ccccc3c2CSC)cc1S(=O)(=O)N1CCOCC1 | 3.8 µg/mL (≈ 7.97 µM)
CCC(=O)Nc1ccccc1-c1nc2ccccc2[nH]c1=O | > 44 µg/mL
CC1CC(C)CN(C(=O)c2ccc3ncsc3c2)C1 (centres undefined) | > 41.2 µg/mL
